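The compound was tested at five concentrations on cells cultured in 96-well plates, with a 48-hour exposure period. GI50 is the concentration that inhibits growth by half.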 Activity calls are given as the source filed them. Rule as the data show it: active = GI50 up to about 1.1 µM and inactive = higher.
Columns and labels:
Assay in all cases: DTP human tumour cell line panel, 48 h
786-0 = system: 786-0
A498 = system: A498
ACHN = system: ACHN
BT-549 = system: BT-549
CAKI-1 = system: CAKI-1
CCRF-CEM = system: CCRF-CEM
COLO 205 = system: COLO 205
DU-145 = system: DU-145
EKVX = system: EKVX
HCC 2998 = system: HCC 2998
HCT-116 = system: HCT-116
HCT-15 = system: HCT-15
HL-60 = system: HL-60
HOP-62 = system: HOP-62
HOP-92 = system: HOP-92
HT-29 = system: HT-29
Hs-578T = system: Hs-578T
IGROV-1 = system: IGROV-1
K562 = system: K562
KM12 = system: KM12
LOX IMVI = system: LOX IMVI
M14 = system: M14
MCF7 = system: MCF7
MDA-MB-231 = system: MDA-MB-231
MDA-MB-435 = system: MDA-MB-435
MOLT-4 = system: MOLT-4
NCI-H226 = system: NCI-H226
NCI-H23 = system: NCI-H23
NCI-H460 = system: NCI-H460
NCI/ADR-RES = system: NCI/ADR-RES
OVCAR-4 = system: OVCAR-4
OVCAR-8 = system: OVCAR-8
PC-3 = system: PC-3
RPMI-8226 = system: RPMI-8226
RXF 393 = system: RXF 393
SF-268 = system: SF-268
SF-295 = system: SF-295
SF-539 = system: SF-539
SK-MEL-28 = system: SK-MEL-28
SK-MEL-2 = system: SK-MEL-2
SK-MEL-5 = system: SK-MEL-5
SK-OV-3 = system: SK-OV-3
SNB-19 = system: SNB-19
SNB-75 = system: SNB-75
SR = system: SR
SW-620 = system: SW-620
T47D = system: T47D
TK-10 = system: TK-10
U-251 = system: U-251
UACC-257 = system: UACC-257
UACC-62 = system: UACC-62
UO-31 = system: UO-31
A549 = system: A549
Malme-3M = system: Malme-3M
NCI-H522 = system: NCI-H522
OVCAR-3 = system: OVCAR-3
OVCAR-5 = system: OVCAR-5
SN12C = system: SN12C

In the case of `OC(c1ccco1)C(F)(F)c1nc2ccccc2o1` (stereo not drawn), the GI50 (786-0) is reported as > 100 µM (inactive), the GI50 (A498) is reported as 62.1 µM (inactive) and the GI50 (ACHN) is reported as > 100 µM (inactive). The GI50 (BT-549) was > 100 µM (inactive), the GI50 (CAKI-1) was > 100 µM (inactive) and the GI50 (CCRF-CEM) was > 100 µM (inactive). For the same compound, the GI50 (COLO 205) was > 100 µM (inactive), the GI50 (DU-145) was > 100 µM (inactive) and the GI50 (EKVX) was > 100 µM (inactive). The GI50 (HCC 2998) was > 100 µM (inactive), the GI50 (HCT-116) was > 100 µM (inactive) and the GI50 (HCT-15) was greater than 100 µM. For the same compound, the GI50 (HL-60) was > 100 µM (inactive), the GI50 (HOP-62) was > 100 µM (inactive) and the GI50 (HOP-92) was > 100 µM (inactive). The GI50 (HT-29) was > 100 µM (inactive), the GI50 (Hs-578T) was > 100 µM (inactive) and the GI50 (IGROV-1) was > 100 µM (inactive). For the same compound, the GI50 (K562) was 69.8 µM (inactive), the GI50 (KM12) was > 100 µM (inactive) and the GI50 (LOX IMVI) was > 100 µM (inactive). The GI50 (M14) was 29.5 µM (inactive), the GI50 (MCF7) was 41.1 µM (inactive) and the GI50 (MDA-MB-231) was > 100 µM (inactive). For the same compound, the GI50 (MDA-MB-435) was > 100 µM (inactive), the GI50 (MOLT-4) was > 100 µM (inactive) and the GI50 (NCI-H226) was > 100 µM (inactive). The GI50 (NCI-H23) was > 100 µM (inactive), the GI50 (NCI-H460) was > 100 µM (inactive) and the GI50 (NCI/ADR-RES) was > 100 µM (inactive). For the same compound, the GI50 (OVCAR-4) was > 100 µM (inactive), the GI50 (OVCAR-8) was > 100 µM (inactive) and the GI50 (PC-3) was > 100 µM (inactive). For the same compound, the GI50 (RPMI-8226) was > 100 µM (inactive), the GI50 (RXF 393) was > 100 µM (inactive) and the GI50 (SF-268) was > 100 µM (inactive). The GI50 (SF-295) was 56.8 µM (inactive), the GI50 (SF-539) was > 100 µM (inactive) and the GI50 (SK-MEL-28) was > 100 µM (inactive). For the same compound, the GI50 (SK-MEL-2) was > 100 µM (inactive), the GI50 (SK-MEL-5) was > 100 µM (inactive) and the GI50 (SK-OV-3) was 68.4 µM (inactive). The GI50 (SNB-19) was > 100 µM (inactive), the GI50 (SNB-75) was > 100 µM (inactive) and the GI50 (SR) was > 100 µM (inactive). The GI50 (SW-620) was > 100 µM (inactive), the GI50 (T47D) was 61.5 µM (inactive) and the GI50 (TK-10) was > 100 µM (inactive). For the same compound, the GI50 (U-251) was > 100 µM (inactive), the GI50 (UACC-257) was > 100 µM (inactive) and the GI50 (UACC-62) was > 100 µM (inactive). For the same compound, the GI50 (UO-31) was 69.2 µM (inactive).
With `O=C1c2ccccc2NC2C(O)c3ccccc3N12` (stereo not drawn) the GI50 (786-0) was > 100 µM (inactive), the GI50 (A498) was 20.6 µM (inactive) and the GI50 (A549) was 10.9 µM (inactive). The GI50 (ACHN) was 40.8 µM (inactive), the GI50 (BT-549) was 58.2 µM (inactive) and the GI50 (CAKI-1) was 34.8 µM (inactive). For the same compound, the GI50 (CCRF-CEM) was 29.4 µM (inactive), the GI50 (COLO 205) was 41.1 µM (inactive) and the GI50 (DU-145) was 45.6 µM (inactive). The GI50 (EKVX) was 35.4 µM (inactive), the GI50 (HCC 2998) was 42.9 µM (inactive) and the GI50 (HCT-116) was 30.5 µM (inactive). For the same compound, the GI50 (HCT-15) was 34.6 µM, the GI50 (HOP-62) was 65 µM (inactive) and the GI50 (HOP-92) was > 100 µM (inactive). The GI50 (HT-29) was 60 µM (inactive), the GI50 (Hs-578T) was 25.1 µM (inactive) and the GI50 (IGROV-1) was 72.8 µM (inactive). For the same compound, the GI50 (K562) was 13.9 µM (inactive), the GI50 (KM12) was 35.2 µM (inactive) and the GI50 (LOX IMVI) was 36.6 µM (inactive). The GI50 (M14) was 81.3 µM (inactive), the GI50 (MCF7) was 40.2 µM (inactive) and the GI50 (MDA-MB-231) was > 100 µM (inactive). The GI50 (MDA-MB-435) was 17.7 µM (inactive), the GI50 (MOLT-4) was 21 µM (inactive) and the GI50 (Malme-3M) was 3.98 µM (inactive). For the same compound, the GI50 (NCI-H226) was > 100 µM (inactive), the GI50 (NCI-H23) was 29.8 µM (inactive) and the GI50 (NCI-H460) was 13.2 µM (inactive). For the same compound, the GI50 (NCI-H522) was 4.09 µM (inactive), the GI50 (NCI/ADR-RES) was 40.4 µM (inactive) and the GI50 (OVCAR-3) was 37 µM (inactive). The GI50 (OVCAR-4) was 25.5 µM (inactive), the GI50 (OVCAR-5) was 82.2 µM (inactive) and the GI50 (OVCAR-8) was 49.1 µM (inactive). For the same compound, the GI50 (PC-3) was 35.4 µM (inactive), the GI50 (RPMI-8226) was 10.1 µM (inactive) and the GI50 (RXF 393) was > 100 µM (inactive). The GI50 (SF-268) was > 100 µM (inactive), the GI50 (SF-295) was 28.8 µM (inactive) and the GI50 (SF-539) was > 100 µM (inactive). The GI50 (SK-MEL-2) was 52 µM (inactive), the GI50 (SK-MEL-5) was 52.7 µM (inactive) and the GI50 (SK-OV-3) was > 100 µM (inactive). For the same compound, the GI50 (SN12C) was 94.4 µM (inactive), the GI50 (SNB-19) was > 100 µM (inactive) and the GI50 (SNB-75) was > 100 µM (inactive). The GI50 (SR) was 38.4 µM (inactive), the GI50 (SW-620) was 9.46 µM (inactive) and the GI50 (T47D) was 6.5 µM (inactive). The GI50 (TK-10) was 99.3 µM (inactive), the GI50 (U-251) was 30 µM (inactive) and the GI50 (UACC-257) was 15.3 µM (inactive). For the same compound, the GI50 (UACC-62) was 23.6 µM (inactive) and the GI50 (UO-31) was 40.8 µM (inactive).
